# Biological target: MAPKAP-K2 (Homo sapiens, UniProt P49137)
# Experiment: MAPKAP-Kinase 2 Assay (33P-ATP peptide phosphorylation, filter plate)
# Format: biochemical
# Design: key: +: active; ++: more active; +++: very active
# Details: assays conducted at typically 1-100 μM
# Protocol: MAPKAP-Kinase 2 Assay [Compound Preparation]
# Compounds are dissolved in DMSO at a concentration of 3 mM and stored in aliquots at −20° C. Compounds in DMSO from these stock aliquots are diluted in 30% DMSO to produce initial working stock solutions of 1 mM and 3 mM. Both of these stock solutions are then subjected to 1:10 serial dilutions in 30% DMSO in order to prepare 3000, 1000, 300, 100, 30, 10, 3, 1, 0.1, 0.01 μM stock solutions. 5 μl of each stock solution is used per 50 μl reaction to give final assay concentrations of 300, 100, 30, 10, 3, 1, 0.3, 0.1, 0.01, 0.001 μM.
# The kinase reaction is conducted in a round-bottomed polypropylene 96-well plate. MAPKAP-K2 is diluted to 25 mU/μl in diluent buffer (50 mM Tris/HCl. pH7.5, 0.1 mM EGTA, 0.1% (v/v) β-mercaptoethanol, 1 mg/ml BSA). 5 μl compound or 30% DMSO is added to each well followed by 25 μl substrate cocktail (10 μM ATP, 30 μM peptide (KKLNRTLSVA), 0.5 μCi ^33P-γ-ATP in 50 mM Tris pH7.5, 0.1 mM EGTA, 10 mM Mg-acetate, 0.1% BME). The reaction is initiated with the addition of 20 μl enzyme solution per well or 20 μl diluent buffer without enzyme. The plate is shaken for 10 sec and then left at room temperature for 30 min. The reaction is terminated with 50 μl 150 mM phosphoric acid. 90 μl of the reaction mixture is then transferred into a 96-well P81 filter plate (Millipore) and incubated at room temperature for 5 min. The filter plate is then washed 4 times with 200 μl 75 mM phosphoric acid per well on a plate vacuum manifold (Millipore) and dried in an oven for 2-3 h. Packard MicroScint ‘0’ (30 μl) is then added to each well, the plate is mixed for 30 min and subjected to liquid scintillation counting on a Packard TopCount.
# [Interpretation] %Control=(X−B)/(Tot−B)×100 %Inhibition=100−% Control X=cpm of the test compound wells B=cpm of wells without enzyme Tot=cpm of wells with DMSO vehicle only
# MAPKAP-K2, sequence (P49137 whole entry): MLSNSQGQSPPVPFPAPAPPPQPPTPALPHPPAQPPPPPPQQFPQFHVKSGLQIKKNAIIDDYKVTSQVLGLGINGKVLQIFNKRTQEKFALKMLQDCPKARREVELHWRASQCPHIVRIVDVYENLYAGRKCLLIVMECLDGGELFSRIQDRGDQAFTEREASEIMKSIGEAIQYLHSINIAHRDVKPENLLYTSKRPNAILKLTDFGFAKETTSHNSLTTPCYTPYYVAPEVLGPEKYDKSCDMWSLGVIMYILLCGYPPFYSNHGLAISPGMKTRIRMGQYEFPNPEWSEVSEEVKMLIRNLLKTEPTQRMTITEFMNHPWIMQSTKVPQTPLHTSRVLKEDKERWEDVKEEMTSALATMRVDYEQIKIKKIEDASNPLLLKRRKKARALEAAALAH
row,Compound,MAPKAP-K2 activity
1,N[C@H]1CC[C@H](Nc2cc(NCc3ccc(F)c(Cl)c3)n3nccc3n2)CC1 [Compound 1],++
2,N[C@H]1CC[C@H](Nc2cc(Nc3ccc(F)c(Cl)c3)n3nccc3n2)CC1 [Compound 2],+++
3,N[C@H]1CC[C@H](Nc2cc(Nc3ccc(Cl)c(Cl)c3)n3nccc3n2)CC1 [Compound 3],+++
4,N[C@H]1CC[C@H](Nc2cc(Nc3ccc4c(c3)OC(F)(F)O4)n3nccc3n2)CC1 [Compound 4],++
5,COc1ccc(Nc2cc(N[C@H]3CC[C@H](N)CC3)nc3ccnn23)cc1Cl [Compound 5],+++
6,Cc1ccc(Nc2cc(N[C@H]3CC[C@H](N)CC3)nc3ccnn23)cc1Cl [Compound 6],+++
7,Cc1ccsc1CNc1cc(N[C@H]2CC[C@H](N)CC2)nc2ccnn12 [Compound 7],++
8,N[C@H]1CC[C@H](Nc2cc(NCc3cccc(Cl)c3)n3nccc3n2)CC1 [Compound 8],++
9,Cc1ccccc1Nc1cc(N[C@H]2CC[C@H](N)CC2)nc2ccnn12 [Compound 9],+++
10,N[C@H]1CC[C@H](Nc2cc(Nc3ccccc3)n3nccc3n2)CC1 [Compound 10],+++
11,N[C@H]1CC[C@H](Nc2cc(Nc3cccc(Cl)c3)n3nccc3n2)CC1 [Compound 11],+++
12,N[C@H]1CC[C@H](Nc2cc(Nc3ccc(Cl)cc3)n3nccc3n2)CC1 [Compound 12],+++
13,N[C@H]1CC[C@H](Nc2cc(Nc3ccccc3Cl)n3nccc3n2)CC1 [Compound 13],+++
14,N[C@H]1CC[C@H](Nc2cc(NCc3ccc(Cl)cc3)n3nccc3n2)CC1 [Compound 14],++
15,CN(C)c1ccc(Nc2cc(N[C@H]3CC[C@H](N)CC3)nc3ccnn23)cc1 [Compound 15],+++
16,N[C@H]1CC[C@H](Nc2cc(Nc3ccc(F)cc3)n3nccc3n2)CC1 [Compound 16],+++
17,COc1ccc(Nc2cc(N[C@H]3CC[C@H](N)CC3)nc3ccnn23)cc1 [Compound 17],+++
18,N[C@H]1CC[C@H](Nc2cc(Nc3ccc(F)c(Cl)c3)n3nccc3n2)CC1 [Compound 18],+
19,CN(C)c1cccc(Nc2cc(N[C@H]3CC[C@H](N)CC3)nc3ccnn23)c1 [Compound 19],+++
20,N[C@H]1CC[C@H](Nc2cc(Nc3ccc(C(F)(F)F)cc3)n3nccc3n2)CC1 [Compound 20],+++
21,N[C@H]1CC[C@H](Nc2cc(Nc3ccc(Oc4ccccc4)cc3)n3nccc3n2)CC1 [Compound 21],+++
22,N[C@H]1CC[C@H](Nc2cc(Nc3ccc(F)cc3F)n3nccc3n2)CC1 [Compound 22],+++
23,CC(Nc1cc(N[C@H]2CC[C@H](N)CC2)nc2ccnn12)c1ccccc1 (stereo partly shown) [Compound 23],+
24,CC(Nc1cc(N[C@H]2CC[C@H](N)CC2)nc2ccnn12)c1ccc(F)cc1 (stereo partly shown) [Compound 24],+

row,Compound,MAPKAP-K2 activity
1,CC(=O)NC1CCC(Nc2cc(Nc3ccc(F)c(Cl)c3)n3nccc3n2)CC1 (stereo not shown) [Compound 25],+
2,CSc1ccc(Nc2cc(N[C@H]3CC[C@H](N)CC3)nc3ccnn23)cc1 [Compound 26],+++
3,CS(=O)(=O)NC1CCC(Nc2cc(Nc3ccc(F)c(Cl)c3)n3nccc3n2)CC1 (stereo not shown) [Compound 27],+
4,O=C(NC1CCC(Nc2cc(Nc3ccc(F)c(Cl)c3)n3nccc3n2)CC1)c1ccccc1 (stereo not shown) [Compound 28],+
5,NC1CCC(Nc2cc(NCCc3ccccc3)n3nccc3n2)CC1 (stereo not shown) [Compound 29],++
6,NC1CCC(Nc2cc(NCCOc3ccccc3)n3nccc3n2)CC1 (stereo not shown) [Compound 31],+
7,N#Cc1cccc(Nc2cc(NC3CCC(N)CC3)nc3ccnn23)c1 (stereo not shown) [Compound 32],+++
8,CC(C)(C)c1ccc(Nc2cc(NC3CCC(N)CC3)nc3ccnn23)cc1 (stereo not shown) [Compound 34],++
9,CCOc1ccc(Nc2cc(NC3CCC(N)CC3)nc3ccnn23)cc1 (stereo not shown) [Compound 35],+++
10,CCCc1ccc(Nc2cc(NC3CCC(N)CC3)nc3ccnn23)cc1 (stereo not shown) [Compound 36],+++
11,CC(C)c1ccc(Nc2cc(NC3CCC(N)CC3)nc3ccnn23)cc1 (stereo not shown) [Compound 37],+++
12,CNC(=O)NC1CCC(Nc2cc(Nc3ccc(F)c(Cl)c3)n3nccc3n2)CC1 (stereo not shown) [Compound 38],+
13,NC1CCC(Nc2cc(NCc3ccc(Cl)c(Cl)c3)n3nccc3n2)CC1 (stereo not shown) [Compound 39],++
14,NC1CCC(Nc2cc(Nc3cccc(I)c3)n3nccc3n2)CC1 (stereo not shown) [Compound 40],+++
15,NC1CCC(Nc2cc(Nc3ccc(Oc4ccc(Cl)cc4)cc3)n3nccc3n2)CC1 (stereo not shown) [Compound 41],+++
16,NC1CCC(Nc2cc(Nc3ccc(Oc4cccc(C(F)(F)F)c4)cc3)n3nccc3n2)CC1 (stereo not shown) [Compound 42],+++
17,Cc1ccc(Nc2cc(NC3CCC(N)CC3)nc3ccnn23)cc1C (stereo not shown) [Compound 43],+++
18,Cc1cccc(Nc2cc(NC3CCC(N)CC3)nc3ccnn23)c1 (stereo not shown) [Compound 44],+++
19,Cc1cccc(C)c1Nc1cc(NC2CCC(N)CC2)nc2ccnn12 (stereo not shown) [Compound 45],++
20,NC1CCC(Nc2cc(Nc3cccc(Oc4ccccc4)c3)n3nccc3n2)CC1 (stereo not shown) [Compound 46],+++
21,COc1ccccc1Nc1cc(NC2CCC(N)CC2)nc2ccnn12 (stereo not shown) [Compound 47],++
22,C=CCNc1cc(NC2CCC(N)CC2)nc2ccnn12 (stereo not shown) [Compound 48],++
23,O=C(Nc1ccccc1)NC1CCC(Nc2cc(Nc3ccc(F)c(Cl)c3)n3nccc3n2)CC1 (stereo not shown) [Compound 49],+
24,CN1CCN(Nc2cc(Nc3ccc(F)c(Cl)c3)n3nccc3n2)CC1 [Compound 50],+

row,Compound,MAPKAP-K2 activity
1,NC1CCC(Nc2cc(Nc3ccc4c(c3)OCO4)n3nccc3n2)CC1 (stereo not shown) [Compound 51],+++
2,NC1CCC(Nc2cc(Nc3ccc(OCc4ccccc4)cc3)n3nccc3n2)CC1 (stereo not shown) [Compound 52],+++
3,NC1CCC(Nc2cc(NCc3cccc(I)c3)n3nccc3n2)CC1 (stereo not shown) [Compound 53],++
4,CCOc1ccccc1Nc1cc(NC2CCC(N)CC2)nc2ccnn12 (stereo not shown) [Compound 54],++
5,NC1CCC(Nc2cc(Nc3ccc4c(c3)OC(F)(F)O4)n3nccc3n2)CC1 (stereo not shown) [Compound 55],++
6,CN1CCC(Nc2cc(Nc3ccc(F)c(Cl)c3)n3nccc3n2)CC1 [Compound 56],++
7,CNC(=S)N[C@H]1CC[C@H](Nc2cc(Nc3ccc(F)c(Cl)c3)n3nccc3n2)CC1 [Compound 57],+
8,C=C(C)CNc1cc(NC2CCC(N)CC2)nc2ccnn12 (stereo not shown) [Compound 58],+++
9,C#CCNc1cc(NC2CCC(N)CC2)nc2ccnn12 (stereo not shown) [Compound 59],+++
10,N[C@H]1CC[C@H](Nc2cc(Nc3ccc(Cl)cc3Cl)n3nccc3n2)CC1 [Compound 60],+++
11,NC1CCCC(Nc2cc(Nc3ccc(F)c(Cl)c3)n3nccc3n2)C1 (stereo not shown) [Compound 61],+
12,COc1cccc(Nc2cc(N[C@H]3CC[C@H](N)CC3)nc3ccnn23)c1 [Compound 62],+++
13,N[C@H]1CC[C@H](Nc2cc(Nc3cccc(OC(F)(F)F)c3)n3nccc3n2)CC1 [Compound 63],+++
14,N[C@H]1CC[C@H](Nc2cc(Nc3cccc(OCc4ccccc4)c3)n3nccc3n2)CC1 [Compound 64],+++
15,CCOc1cccc(Nc2cc(N[C@H]3CC[C@H](N)CC3)nc3ccnn23)c1 [Compound 65],+++
16,N[C@H]1CC[C@H](Nc2cc(Nc3ccccc3F)n3nccc3n2)CC1 [Compound 66],+++
17,N[C@H]1CC[C@H](Nc2cc(Nc3cccc(Cl)c3Cl)n3nccc3n2)CC1 [Compound 67],+++
18,N[C@H]1CC[C@H](Nc2cc(Nc3cc(Cl)ccc3Cl)n3nccc3n2)CC1 [Compound 68],+++
19,N[C@H]1CC[C@H](Nc2cc(Nc3c(Cl)cccc3Cl)n3nccc3n2)CC1 [Compound 69],+++
20,N[C@H]1CC[C@H](Nc2cc(Nc3ccc(O)cc3)n3nccc3n2)CC1 [Compound 70],+++
21,N[C@H]1CC[C@H](Nc2cc(NCc3ccccc3Cl)n3nccc3n2)CC1 [Compound 71],++
22,NC1CCCN(c2cc(Nc3ccc(F)c(Cl)c3)n3nccc3n2)C1 (stereo not shown) [Compound 72],++

# Source: patent US20060205743A1, “Protein kinase inhibitors” (priority 2003, published 2006)
